From BigSolDB 2.1

CC(C)Oc1ccc2c(=O)c(-c3ccccc3)coc2c1
solubility (mole fraction)
Settings	278.15 K	283.15 K	288.15 K	293.15 K	298.15 K	303.15 K	308.15 K	313.15 K	318.15 K	323.15 K
in DMAc	0.0395	0.0454	0.0534	0.062	0.0721	0.0841	0.0981	0.113	0.133	0.152
in DMF	0.0245	0.0301	0.0352	0.0431	0.0506	0.0622	0.0718	0.0884	0.103	0.126
in acetone	0.00852	0.0102	0.0128	0.0157	0.0193	0.0241	0.0291	0.0363	0.0441	0.056
in acetonitrile	0.00246	0.00336	0.00441	0.0056	0.00731	0.00942	0.0122	0.0159	0.0212	0.0282
in dichloromethane	0.0667	0.0735	0.0809	0.0903	0.0988	0.108	0.119	–	–	–
in ethanol	0.000992	0.00141	0.00187	0.00239	0.00301	0.00409	0.00521	0.00696	0.00872	0.012
in methanol	0.000841	0.00109	0.0015	0.00195	0.00244	0.0032	0.00391	0.00505	0.00623	0.00823
in methyl acetate	0.00948	0.0116	0.0142	0.0174	0.0213	0.0264	0.0321	0.039	0.0479	0.059
in n-butanol	0.00166	0.00215	0.00294	0.00375	0.00494	0.00645	0.00842	0.0113	0.0153	0.0195
in n-pentanol	0.00192	0.00239	0.00338	0.00461	0.00597	0.0073	0.00992	0.0125	0.0165	0.0221
in n-propanol	0.00135	0.00172	0.00223	0.00307	0.00399	0.00509	0.00671	0.00877	0.0113	0.0147
in toluene	0.0114	0.0143	0.0174	0.022	0.0271	0.0338	0.0417	0.0523	0.0638	0.0802
